# In patent publication US9278922B2 (ABBVIE INC., priority 2009, dated 2016):
# pEC50: −log10 of the molar value.
# System: HCV 1b-Con-1 replicon
# Experiment: HCV 1b-Con-1 replicon assay (luciferase reporter gene, HuH-7 cells)
# Format: cell-based, Hepatitis C virus (HCV) genotype 1b-Con1
# Conditions: Hepatitis C virus, Huh-7, luciferase reporter gene activity in the replicon, in the presence of 5% FBS
row,SMILES,pEC50
1,"COC(=O)N[C@H](C(=O)N1CCC[C@H]1C(=O)Nc1ccc(CN(Cc2ccc(NC(=O)[C@@H]3CCCN3C(=O)[C@@H](NC(=O)OC)C(C)(C)C)cc2)[C@@H]2CCOC2)cc1)C(C)(C)C [Example 44, dimethyl ([(3R)-tetrahydrofuran-3-ylimino]bis{methanediylbenzene-4,1-diylcarbamoyl(2S)pyrrolidine-2,1-diyl[(2S)-3,3-dimethyl-1-oxobutane-1,2-diyl]})biscarbamate]",7.00 to 8.00
2,"COC(=O)N[C@@H](CC(C)C)C(=O)N1CCC[C@H]1C(=O)Nc1ccc(CN(Cc2ccc(NC(=O)[C@@H]3CCCN3C(=O)[C@H](CC(C)C)NC(=O)OC)cc2)c2ccccc2)cc1 [Example 45, dimethyl [(phenylimino)bis{methanediylbenzene-4,1-diylcarbamoyl(2S)pyrrolidine-2,1-diyl[(2S)-4-methyl-1-oxopentane-1,2-diyl]}]biscarbamate]",8.00 to 9.00
3,"CCC[C@H](NC(=O)OC)C(=O)N1CCC[C@H]1C(=O)Nc1ccc(CN(Cc2ccc(NC(=O)[C@@H]3CCCN3C(=O)[C@H](CCC)NC(=O)OC)cc2)c2ccccc2)cc1 [Example 46, dimethyl [(phenylimino)bis{methanediylbenzene-4,1-diylcarbamoyl(2S)pyrrolidine-2,1-diyl[(2S)-1-oxopentane-1,2-diyl]}]biscarbamate]",8.00 to 9.00
4,"COC(=O)N[C@H](C(=O)N(C)[C@@H](C)C(=O)Nc1ccc(CN(Cc2ccc(NC(=O)[C@H](C)N(C)C(=O)[C@@H](NC(=O)OC)C(C)(C)C)cc2)c2ccccc2)cc1)C(C)(C)C [Example 47, dimethyl[(phenylimino)bis{methanediylbenzene-4,1-diylimino[(2S)-1-oxopropane-1,2-diyl](methylimino)[(2S)-3,3-dimethyl-1-oxobutane-1,2-diyl]}]biscarbamate]",8.00 to 9.00
5,COC(=O)N[C@H](C(=O)N1C[C@H](O)C[C@H]1C(=O)Nc1ccc(CN(Cc2ccc(NC(=O)[C@@H]3C[C@@H](O)CN3C(=O)[C@@H](NC(=O)OC)C(C)(C)C)cc2)c2ccccc2)cc1)C(C)(C)C [Example 48],8.00 to 9.00
6,"COC(=O)N[C@H](C(=O)N1CCC[C@H]1C(=O)Nc1ccc(CN(Cc2ccc(NC(=O)[C@@H]3CCCN3C(=O)[C@@H](NC(=O)OC)[C@H](C)O)cc2)c2ccccc2)cc1)[C@H](C)O [Example 49, dimethyl [(phenylimino)bis{methanediylbenzene-4,1-diylcarbamoyl(2S)pyrrolidine-2,1-diyl[(2S,3S)-3-hydroxy-1-oxobutane-1,2-diyl]}]biscarbamate]",8.00 to 9.00
7,"CC[C@@H](C)[C@H](NC(=O)OC)C(=O)N1CCC[C@H]1C(=O)Nc1ccc(CN(Cc2ccc(NC(=O)[C@@H]3CCCN3C(=O)[C@@H](NC(=O)OC)[C@H](C)CC)cc2)c2ccccc2)cc1 [Example 50, dimethyl[(phenylimino)bis{methanediylbenzene-4,1-diylcarbamoyl(2S)pyrrolidine-2,1-diyl[(2S,3R)-3-methyl-1-oxopentane-1,2-diyl]}]biscarbamate]",> 9.00
8,"COC(=O)N[C@H](C(=O)N1CCC[C@H]1C(=O)Nc1ccc(CN(Cc2ccc(NC(=O)[C@@H]3CCCN3C(=O)[C@@H](NC(=O)OC)[C@@H](C)OC)cc2)c2ccccc2)cc1)[C@@H](C)OC [Example 51, dimethyl[(phenylimino)bis{methanediylbenzene-4,1-diylcarbamoyl(2S)pyrrolidine-2,1-diyl[(2S,3R)-3-methoxy-1-oxobutane-1,2-diyl]}]biscarbamate]",8.00 to 9.00
9,"COC(=O)N[C@H](C(=O)N1CCC[C@H]1C(=O)Nc1ccc(CN(Cc2ccc(NC(=O)[C@@H]3CCCN3C(=O)[C@@H](NC(=O)OC)C(C)(C)OC)cc2)c2ccccc2)cc1)C(C)(C)OC [Example 52, dimethyl [(phenylimino)bis{methanediylbenzene-4,1-diylcarbamoyl(2S)pyrrolidine-2,1-diyl[(2S)-3-methoxy-3-methyl-1-oxobutane-1,2-diyl]}]biscarbamate]",8.00 to 9.00
10,"COC(=O)N[C@H](C(=O)N1CCC[C@H]1C(=O)Nc1ccc(CN(Cc2ccc(NC(=O)[C@@H]3CCCN3C(=O)[C@@H](NC(=O)OC)C(C)(C)C)cc2)c2ccccc2)cc1)[C@H]1CCOC1 [Example 53, N-(methoxycarbonyl)-3-methyl-L-valyl-N-(4-{[{4-[(1-{(2S)-2-[(methoxycarbonyl)amino]-2-[(3R)-tetrahydrofuran-3-yl]acetyl}-L-prolyl)amino]benzyl}(phenyl)amino]methyl}phenyl)-L-prolinamide]",> 9.00
11,"CCN(CC)[C@@H](C(=O)N1CCC[C@H]1C(=O)Nc1ccc(CN(Cc2ccc(NC(=O)[C@@H]3CCCN3C(=O)[C@@H](c3ccccc3)N(CC)CC)cc2)c2ccc(F)cc2)cc1)c1ccccc1 [Example 54, (2S,2′S)-N,N-{[(4-fluorophenyl)imino]bis(methanediylbenzene-4,1-diyl)}bis{1-[(2R)-2-(diethylamino)-2-phenylacetyl]pyrrolidine-2-carboxamide}]",> 9.00
12,"O=C(Nc1ccc(CN(Cc2ccc(NC(=O)[C@@H]3CCCN3C(=O)[C@@H](c3ccccc3)N3CCCC3)cc2)c2ccccc2)cc1)[C@@H]1CCCN1C(=O)[C@@H](c1ccccc1)N1CCCC1 [Example 55, (2S,2′S)-N,N′-[(phenylimino)bis(methanediylbenzene-4,1-diyl)]bis{1-[(2R)-2-phenyl-2-pyrrolidin-1-ylacetyl]pyrrolidine-2-carboxamide}]",> 9.00
13,"COC(=O)N[C@H](C(=O)N1CCC[C@H]1C(=O)Nc1ccc(CN(Cc2ccc(NC(=O)[C@@H]3CCCN3C(=O)[C@@H](c3ccccc3)N3CCCC3)cc2)c2ccccc2)cc1)C(C)(C)C [Example 56, N-(methoxycarbonyl)-3-methyl-L-valyl-N-[4-({phenyl[4-({1-[(2R)-2-phenyl-2-pyrrolidin-1-ylacetyl]-L-prolyl}amino)benzyl]amino}methyl)phenyl]-L-prolinamide]",> 9.00
14,"O=C(Nc1ccc(CN(Cc2ccc(NC(=O)[C@@H]3CCCN3C(=O)[C@@H](c3ccccc3)N3CCOCC3)cc2)c2ccccc2)cc1)[C@@H]1CCCN1C(=O)[C@@H](c1ccccc1)N1CCOCC1 [Example 57, (2S,2′S)-N,N′-[(phenylimino)bis(methanediylbenzene-4,1-diyl)]bis{1-[(2R)-2-morpholin-4-yl-2-phenylacetyl]pyrrolidine-2-carboxamide}]",> 9.00
15,"COC(=O)N[C@H](C(=O)N1CCC[C@H]1C(=O)Nc1ccc(CN(Cc2ccc(NC(=O)[C@@H]3CCCN3C(=O)[C@@H](c3ccccc3)N3CCOCC3)cc2)c2ccccc2)cc1)C(C)(C)C [Example 58, N-(methoxycarbonyl)-3-methyl-L-valyl-N-[4-({[4-({1-[(2R)-2-morpholin-4-yl-2-phenylacetyl]-L-prolyl}amino)benzyl](phenyl)amino}methyl)phenyl]-L-prolinamide]",> 9.00
16,"COC(=O)N[C@H](C(=O)N1CCC[C@H]1C(=O)Nc1ccc(CN(Cc2ccc(NC(=O)[C@@H]3CCCN3C(=O)[C@@H](NC(=O)O[C@H]3CCOC3)C(C)(C)C)cc2)c2ccccc2)cc1)C(C)(C)C [Example 59, methyl (3S)-tetrahydrofuran-3-yl[(phenylimino)bis{methanediylbenzene-4,1-diylcarbamoyl(2S)pyrrolidine-2,1-diyl[(2S)-3,3-dimethyl-1-oxobutane-1,2-diyl]}]biscarbamate]",7.00 to 8.00
